Assay results reported in patent publication US20120201749A1, “NP-1 Antagonists and Their Therapeutic Use” (priority 2009, published 2012).

Molecular target: NP-1 (Homo sapiens, UniProt O14786)
Assay: Biotinylated-VEGF-A165 (bt-VEGF-A165) binding to NP-1
Conditions: for inhibition at 3 µM: 3 μM compound, read-out: Screen (% inhibition at 3 μM); for inhibition at 30 µM: read-out: Screen (% inhibition at 30 μM)
Protocol: Human prostate carcinoma DU145 cells were cultured in growth medium (RPMI 1640 containing 10% FBS and L-glutamine). DU145 cells were seeded at the density of 2×10^4 cells per well (96-well plates) in 0.1 ml growth medium and transfected with adenovirus vectors containing the full-length open-reading frame of human NP-1. The Ad.NP-1-transfected cells grew for 2 days prior to a binding assay.
Confluent Ad.NP-1-transfected cells in 96-well plates were washed twice with phosphate-buffered saline (PBS). The various concentrations of compounds diluted in binding medium (Dulbecco's modified Eagle's medium, 25 mM HEPES pH 7.3 containing 0.1% BSA) were added, followed by addition of 2 nM of bt-VEGF-A165. After 2 h of incubation at room temperature, the medium was aspirated and washed three times with PBS. The bound bt-VEGF-A165 to NP-1 was detected by streptavidin-horseradish peroxidase conjugates and the enzyme substrate, and measured using a Tecan Genios plate reader at A450 nm with a reference wavelength at A595 nm. Non-specific binding was determined in the presence of 100-fold excess unlabelled VEGF-A165.
The 96-well plates were pre-coated with NP1 protein at 3 μg/ml overnight at 4° C. On the following day, the plates were treated with blocking buffer (PBS containing 1% BSA) and washed three times with wash buffer (PBS containing 0.1% Tween-20). The various concentrations of compounds diluted in PBS containing 1% DMSO were added, followed by addition of 0.25 nM of bt-VEGF-A165. After 2 h of incubation at room temperature, the plates were washed three times with wash buffer. The bound bt-VEGF-A165 to NP-1 was detected by streptavidin-horseradish peroxidase conjugates and the enzyme substrate, and measured using a Tecan Genios plate reader at A450 nm with a reference wavelength at A595 nm. Nonspecific binding was determined in the absence of NP-1 coated wells of the plates.

Sequence of NP-1 (O14786 22-923): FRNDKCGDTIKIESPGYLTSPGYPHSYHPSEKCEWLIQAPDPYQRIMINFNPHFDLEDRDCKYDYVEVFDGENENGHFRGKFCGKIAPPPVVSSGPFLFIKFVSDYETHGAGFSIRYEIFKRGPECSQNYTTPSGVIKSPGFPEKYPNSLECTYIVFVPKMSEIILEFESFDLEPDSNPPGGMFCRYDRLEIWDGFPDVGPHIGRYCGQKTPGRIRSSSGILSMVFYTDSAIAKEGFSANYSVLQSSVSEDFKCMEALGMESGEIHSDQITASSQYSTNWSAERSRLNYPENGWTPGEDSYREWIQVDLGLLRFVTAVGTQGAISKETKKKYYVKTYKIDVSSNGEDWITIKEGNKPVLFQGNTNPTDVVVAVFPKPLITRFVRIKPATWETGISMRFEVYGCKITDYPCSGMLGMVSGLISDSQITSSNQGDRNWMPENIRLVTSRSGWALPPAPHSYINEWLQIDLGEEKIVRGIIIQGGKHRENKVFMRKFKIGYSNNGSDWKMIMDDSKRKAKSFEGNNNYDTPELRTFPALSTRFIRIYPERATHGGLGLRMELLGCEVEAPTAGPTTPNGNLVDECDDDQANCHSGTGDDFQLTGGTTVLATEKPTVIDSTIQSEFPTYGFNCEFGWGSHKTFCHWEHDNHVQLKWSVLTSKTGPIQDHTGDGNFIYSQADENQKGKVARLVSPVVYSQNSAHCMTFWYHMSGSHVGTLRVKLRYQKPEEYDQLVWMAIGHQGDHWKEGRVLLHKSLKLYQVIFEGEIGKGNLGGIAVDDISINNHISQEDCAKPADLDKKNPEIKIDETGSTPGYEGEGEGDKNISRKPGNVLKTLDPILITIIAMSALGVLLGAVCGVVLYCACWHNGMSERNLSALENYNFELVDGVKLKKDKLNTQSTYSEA

Compound	IC50 [nM]	inhibition at 3 µM [%]	inhibition at 30 µM (30 μM compound) [%]	Screen (% inhibition at 30 μM) (30 μM compound, 30 µM) [%]
N=C(N)NCCC[C@H](NC(=O)c1sccc1NS(=O)(=O)c1cc(-c2ccccc2CN2CCC(C(=O)O)CC2)cc2c1OCC2)C(=O)O [Compound 1, 1-(2-{7-[2-((S)-1-Carboxy-4-guanidino-butylcarbonyl)-thiophen-3-ylsulfamoyl]-2,3-dihydro-benzofuran-5-yl}-benzyl)-piperidine-4-carboxylic acid]	7	100		
N=C(N)NCCC[C@H](NC(=O)c1sccc1NS(=O)(=O)c1cc(-c2ccccc2CN2CCC(CC(=O)O)CC2)cc2c1OCC2)C(=O)O [Compound 2, (S)-2-[(3-{5-[2-(4-Carboxymethyl-piperidin-1-ylmethyl)-phenyl]-2,3-dihydro-benzofuran-7-sulfonylamino}-thiophene-2-carbonyl)-amino]-5-guanidino-pentanoic acid]		96		
N=C(N)NCCC[C@H](NC(=O)c1sccc1NS(=O)(=O)c1cc(-c2cccc(CN3CCC(C(=O)O)CC3)c2)cc2c1OCC2)C(=O)O [Compound 3, 1-(3-{7-[2-((S)-1-Carboxy-4-guanidino-butylcarbamoyl)-thiophen-3-ylsulfamoyl]-2,3-dihydro-benzofuran-5-yl}-benzyl)-piperidine-4-carboxylic acid]	142	89		
N=C(N)NCCC[C@H](NC(=O)c1sccc1NS(=O)(=O)c1cc(-c2cccc(CN3CCC(CC(=O)O)CC3)c2)cc2c1OCC2)C(=O)O [Compound 4, (S)-2-[(3-{5-[3-(4-Carboxymethyl-piperidin-1-ylmethyl)-phenyl]-2,3-dihydro-benzofuran-7-sulfonylamino}-thiophene-2-carbonyl)-amino]-5-guanidino-pentanoic acid]	72	80		
COC(=O)C1CCN(Cc2ccccc2-c2cc3c(c(S(=O)(=O)Nc4ccsc4C(=O)N[C@@H](CCCNC(=N)N)C(=O)O)c2)OCC3)CC1 [Compound 5, 1-(2-{7-[2-((S)-1-Carboxy-4-guanidino-butylcarbamoyl)-thiophen-3-ylsulfamoyl]-2,3-dihydro-benzofuran-5-yl}-benzyl)-piperidine-4-carboxylic acid methyl ester]	14	92	100	
COC(=O)CC1CCN(Cc2ccccc2-c2cc3c(c(S(=O)(=O)Nc4ccsc4C(=O)N[C@@H](CCCNC(=N)N)C(=O)O)c2)OCC3)CC1 [Compound 6, (S)-5-Guanidino-2-[(3-{5-[2-(4-methoxycarbonylmethyl-piperidin-1-ylmethyl)-phenyl]-2,3-dihydro-benzofuran-7-sulfonylamino}-thiophene-2-carbonyl)-amino]-pentanoic acid]	3	95		
COC(=O)C1CCN(Cc2cccc(-c3cc4c(c(S(=O)(=O)Nc5ccsc5C(=O)N[C@@H](CCCNC(=N)N)C(=O)O)c3)OCC4)c2)CC1 [Compound 7, 1-(3-{7-[2-((S)-1-Carboxy-4-guanidino-butylcarbamoyl)-thiophen-3-ylsulfamoyl]-2,3-dihydro-benzofuran-5-yl}-benzyl)-piperidine-4-carboxylic acid methyl ester]	5	94		
N=C(N)NCCC[C@H](NC(=O)c1sccc1NS(=O)(=O)c1cc(-c2ccccc2CNCc2cccnc2)cc2c1OCC2)C(=O)O [Compound 9, (S)-5-Guanidino-2-({3-[5-(2-{[(pyridin-3-ylmethyl)-amino]-methyl}-phenyl)-2,3-dihydro-benzofuran-7-sulfonylamino]-thiophene-2-carbonyl}-amino)-pentanoic acid]	3000		97	
N=C(N)NCCC[C@H](NC(=O)c1sccc1NS(=O)(=O)c1cc(-c2cccc(CNCc3cccnc3)c2)cc2c1OCC2)C(=O)O [Compound 12, (S)-5-Guanidino-2-({3-[5-(3-{[(pyridin-3-ylmethyl)-amino]-methyl}-phenyl)-2,3-dihydro-benzofuran-7-sulfonyl-amino]-thiophene-2-carbonyl}-amino)-pentanoic acid]	1200		96	
N=C(N)NCCC[C@H](NC(=O)c1sccc1NS(=O)(=O)c1cc(-c2cccc(CN3CCN(c4cccnc4)CC3)c2)cc2c1OCC2)C(=O)O [Compound 13, (S)-5-Guanidino-2-[(3-{5-[3-(4-pyridin-3-yl-piperazin-1-ylmethyl)-phenyl]-2,3-dihydro-benzofuran-7-sulfonylamino}-thiophene-2-carbonyl)-amino]-pentanoic acid]	591		100	
N=C(N)NCCC[C@H](NC(=O)c1sccc1NS(=O)(=O)c1cc(-c2ccccc2CNCc2ccncc2)cc2c1OCC2)C(=O)O [Compound 19, (S)-5-Guanidino-2-({3-[5-(2-{[(pyridin-4-ylmethyl)-amino]-methyl}-phenyl)-2,3-dihydro-benzofuran-7-sulfonylamino]-thiophene-2-carbonyl}-amino)-pentanoic acid]		56		

Continued, values first:

IC50 [nM]	inhibition at 3 µM [%]	inhibition at 30 µM (30 μM compound) [%]	Screen (% inhibition at 30 μM) (30 μM compound, 30 µM) [%]	Compound
1800		90		N=C(N)NCCC[C@H](NC(=O)c1sccc1NS(=O)(=O)c1cc(-c2ccccc2CN2CCN(Cc3ccncc3)CC2)cc2c1OCC2)C(=O)O [Compound 8, (S)-5-Guanidino-2-[(3-{5-[2-(4-pyridin-4-ylmethyl-piperazin-1-ylmethyl)-phenyl]-2,3-dihydro-benzofuran-7-sulfonylamino}-thiophene-2-carbonyl)-amino]-pentanoic acid]
2000		97		N=C(N)NCCC[C@H](NC(=O)c1sccc1NS(=O)(=O)c1cc(-c2ccccc2CN2CCN(c3cccnc3)CC2)cc2c1OCC2)C(=O)O [Compound 10, (S)-5-Guanidino-2-[(3-{5-[2-(4-pyridin-3-yl-piperazin-1-ylmethyl)-phenyl]-2,3-dihydro-benzofuran-7-sulfonylamino}-thiophene-2-carbonyl)-amino]-pentanoic acid]
1500		98		N=C(N)NCCC[C@H](NC(=O)c1sccc1NS(=O)(=O)c1cc(-c2cccc(CN3CCN(Cc4cccnc4)CC3)c2)cc2c1OCC2)C(=O)O [Compound 11, (S)-5-Guanidino-2-[(3-{5-[3-(4-pyridin-3-ylmethyl-piperazin-1-ylmethyl)-phenyl]-2,3-dihydro-benzofuran-7-sulfonylamino}-thiophene-2-carbonyl)-amino]-pentanoic acid]
	67	100		N=C(N)NCCC[C@H](NC(=O)c1sccc1NS(=O)(=O)c1cc(-c2ccccc2CN2CCN(c3ccccn3)CC2)cc2c1OCC2)C(=O)O [Compound 14, (S)-5-Guanidino-2-[(3-{5-[2-(4-pyridin-2-yl-piperazin-1-ylmethyl)-phenyl]-2,3-dihydro-benzofuran-7-sulfonylamino}-thiophene-2-carbonyl)-amino]-pentanoic acid]
	62	97		N=C(N)NCCC[C@H](NC(=O)c1sccc1NS(=O)(=O)c1cc(-c2ccccc2CN2CCN(c3ccncc3)CC2)cc2c1OCC2)C(=O)O [Compound 15, (S)-5-Guanidino-2-[(3-{5-[2-(4-pyridin-4-yl-piperazin-1-ylmethyl)-phenyl]-2,3-dihydro-benzofuran-7-sulfonylamino}-thiophene-2-carbonyl)-amino]-pentanoic acid]
	64	95		N=C(N)NCCC[C@H](NC(=O)c1sccc1NS(=O)(=O)c1cc(-c2ccccc2CN2CCN(Cc3ccccn3)CC2)cc2c1OCC2)C(=O)O [Compound 16, (S)-5-Guanidino-2-[(3-{5-[2-(4-pyridin-2-ylmethyl-piperazin-1-ylmethyl)-phenyl]-2,3-dihydro-benzofuran-7-sulfonylamino}-thiophene-2-carbonyl)-amino]-pentanoic acid]
	56		94	N=C(N)NCCC[C@H](NC(=O)c1sccc1NS(=O)(=O)c1cc(-c2ccccc2CN2CCN(Cc3ccncc3)CC2)cc2c1OCC2)C(=O)O [Compound 17, (S)-5-Guanidino-2-[(3-{5-[2-(4-pyridin-4-ylmethyl-piperazin-1-ylmethyl)-phenyl]-2,3-dihydro-benzofuran-7-sulfonylamino}-thiophene-2-carbonyl)-amino]-pentanoic acid]
	70	100		N=C(N)NCCC[C@H](NC(=O)c1sccc1NS(=O)(=O)c1cc(-c2ccccc2CNCc2ccccn2)cc2c1OCC2)C(=O)O [Compound 18, (S)-5-Guanidino-2-({3-[5-(2-{[(pyridin-2-ylmethyl)-amino]-methyl}-phenyl)-2,3-dihydro-benzofuran-7-sulfonylamino]-thiophene-2-carbonyl}-amino)-pentanoic acid]
